# Measured values from patent US9694401B2, “Method and apparatus for treating perfluoroalkyl compounds” (ThinkVillage-Kerfoot, LLC, priority 2013, dated 2017).
# Structures can show the parent of a compound that is named as a salt. Where two headings read alike, the source gives them in different places.
# Assays:
# [1] = cited from earlier work
# [2] = Bench scale soil treatment (2400 ppmV O3), groundwater over soil slurry; format: physicochemical; settings: for PFC concentration in groundwater over soil slurry, 30 MIN / PFC concentration in groundwater over soil slurry, 60 MIN / PFC concentration in groundwater over soil slurry, 120 MIN / % REMOVAL in groundwater over soil slurry: 2400 ppmV O3, 10% peroxide; for % REMOVAL in groundwater over soil slurry: start to 120 MIN
# Method: (§1) On one foam fire-fighting site, samples of groundwater from monitoring well 1 (MW1) and soil samples between MW1 and monitoring well 3 (MW3) were shipped to the laboratory in coolers with blue ice packing to maintain the temperature at less than 4.4° C. (40° F.). Two sets of tests were conducted, groundwater and soil treatment.
# (§2) For soil samples, 1000 cm^3 of soil was mixed together and then separated into four 250 cm^3 aliquots. The first was submitted as background (start) condition. The remaining three were treated with a fine bubble-coated ozone bubble solution from the pressurized generator (20-25 psi). The ozone concentration was 2400 ppmV with a flow of 5 cm^3/sec. The peroxide was 10% solution and supplied at 5 cm^3/min flow. The generator was filled with 500 liters of groundwater from the site well (MW1) which was delivered in 50 cm^3 surges to a two-liter flask with the soil under constant stirring action. The subsequent reaction raised the temperature of the soil/liquid solution from 20.6° C. (69° F.) to 22.8° C. (73° F.) after 10 minutes, reaching 41.1° C. (106° F.) after 30 minutes. For the 30-minute treatment, no further bubble solution was added; the flask was placed over water until bubbling ceased or two hours and then placed in chilled water. The overlying groundwater was decanted off, and the underlying semi-solid was placed in a glass jar and chilled for transport for analysis. A similar procedure was followed for the 60- and 120-minute soil aliquots.
# [3] = Bench scale groundwater treatment with peroxide-coated ozone nanobubbles (1260 ppmV O3, 10% H2O2); format: physicochemical; settings: 1260 ppmV O3, 10% H2O2, 3 HR
# [4] = as above; format: physicochemical; settings: for PFC concentration in groundwater, 1 HR: 1260 ppmV O3, 10% H2O2, 1 HR; for PFC concentration in groundwater, 2 HR: 1260 ppmV O3, 10% H2O2, 2 HR; for % REMOVAL from groundwater: 1260 ppmV O3, 10% H2O2, start to last time point; for PFC concentration in groundwater, START: untreated start (0 minutes)
# Method: as §1
# Bench scale tests were conducted in a pressurized glass cylindrical reaction cell (17-20 psi) holding a laminar stainless steel spargepoint with a 0.20-micron porous surface. Four liters of groundwater were mixed together. A liter of distilled water as a blank was treated and set aside for analysis. The first liter of groundwater was also set aside as “start” condition (0 minutes). One liter of groundwater from MW1 was added to the cell. An ozone flow of 5 cm^3/sec was added at 1260 ppmV. Peroxide (10%) flow was 8 cm^3/minute and treated for 30 minutes. Pressure was 17-20 psi.
# A second liter was added to the chamber and treated for 60 minutes. The blank, original (start), 30 minute, and 60 minute samples were placed in ice for analysis. A final sample (120 minute) was treated with 60 minutes of peroxide, but ozone continued for 120 minutes.
# [5] = Bench scale soil treatment with peroxide-coated ozone nanobubbles (2400 ppmV O3), soil fraction; format: physicochemical; settings: for decomposing the other PF compounds (removal) by the new solution: matrix not given; for removal in the soil series: 2400 ppmV O3, 41.1° C. to 43.3° C.
# Method: as §1, §2
# [6] = cited from earlier work; remark: listed apart in the source
# [7] = cited from earlier work; remark: listed apart in the source
# [8] = cited from earlier work; for Water Solubility: at 25° C.
# [9] = 155 mg/L PFOA, 12 g/L persulfate, 80° C., cited from earlier work
# [10] = cited from earlier work; remark: listed apart in the source
Structure (SMILES),Acidity (pKa) [1],"PFC concentration in groundwater over soil slurry, 30 MIN [2]","PFC concentration in groundwater over soil slurry, 60 MIN [2]","PFC concentration in groundwater over soil slurry, 120 MIN [2]",% REMOVAL in groundwater over soil slurry [2],"PFC concentration in groundwater over soil slurry, START [2]","PFC concentration in groundwater, 3 HR [3]","PFC concentration in groundwater, 1 HR [4]","PFC concentration in groundwater, 2 HR [4]",% REMOVAL from groundwater [4],"PFC concentration in groundwater, START [4]",decomposing the other PF compounds (removal) by the new solution [5],other results
"OO [H2O2, hydrogen peroxide]",11.7,,,,,,,,,,,,
"O=C(O)C(F)(F)C(F)(F)C(F)(F)C(F)(F)C(F)(F)F [PFHxA, perfluorohexanoic acid]",,75,34,23,91.5%,270,86,110,150,69.2%,270,86.2%,
"O=S(=O)(O)C(F)(F)C(F)(F)C(F)(F)C(F)(F)C(F)(F)C(F)(F)F [PFHxS, perfluorohexane sulfonate]",,87,14,8,97.4%,300,42,100,110,86%,300,98.1%,
"O=C(O)C(F)(F)C(F)(F)C(F)(F)C(F)(F)C(F)(F)C(F)(F)C(F)(F)F [PFOA, perfluorooctanoic acid]",0,22,4,3,91.2%,34,9,17,13,73.6%,34,,"PFOA degraded ([6]; 1 M H2O2 and 0.5 mM iron (III), within 150 minutes): 94%; PFOA degradation ([6]; reactions generating O2^− or HO2^− alone): degraded rapidly; Vapor Pressure at 20° C. [7]: 0.017 mm Hg; Solubility in water ([8]; Table 2): Soluble, 9.5 g/L; Water Solubility ([8]; purified): 9.5 × 10^3 (purified) mg/L; removal in the soil series [5]: over 97%; Fluoride ions formed (molar ratio) ([9]; 6 hours): 77.5%; carbon dioxide formed (molar ratio) ([9]; 6 hours): 70.2%; aqueous phase PFOA concentration after treatment ([9]; after 6 hours, 0.6 mg/L = detection limit): less than 0.6 mg/L; Solubility in other solvents [10]: Polar organic solvents"
O=S(=O)(O)C(F)(F)C(F)(F)C(F)(F)C(F)(F)C(F)(F)C(F)(F)C(F)(F)C(F)(F)F [PFOS (Potassium Salt)],,,,,,,,,,,,,"Vapor Pressure at 20° C. [7]: 2.48 × 10^−6 mm Hg; Water Solubility ([8]; filtered seawater): (freshwater), 25 (filtered mg/L; Water Solubility ([8]; freshwater): 370 mg/L"
"O=S(=O)(O)C(F)(F)C(F)(F)C(F)(F)C(F)(F)C(F)(F)C(F)(F)C(F)(F)C(F)(F)F [PFOS, perfluorooctane sulfonate]",<<0,340,33,44,89.8%,430,76,150,160,82.3%,430,,removal in the soil series [5]: over 99%
"O=C(O)C(F)(F)C(F)(F)C(F)(F)C(F)(F)F [PFPeA, perfluoropentanoic acid]",,13,8,6,92.9%,84,15,27,23,82.1%,84,89.8%,
